In the supplement of paper PMC10307832:

Tests used:
Test in all cases: relative viability (nuclei count vs DMSO), 5 days (fraction); higher = more cells survive
NCI-H1650 = system: NCI-H1650
Procedure, shortened: (§1)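 For relative viability, nuclei counts in treated wells were divided by those in vehicle wells. Lung cancer cell lines had been pin-tool dosed in 1536-well plates the day after seeding and cultured for 5 days, then fixed and stained in one step (final 0.05% Triton X-100, 1% formaldehyde, 1 ug/ml Hoechst) and imaged at 4×. Doses were one drug alone or a fixed anchor-drug dose plus five library-drug doses (not always all listed) in √10 steps, and values are duplicate-plate medians.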

NCI-H441 = system: NCI-H441
Procedure, shortened: as §1

PC-14 = system: PC-14
Procedure, shortened: as §1

HARA = system: HARA
Procedure, shortened: as §1

HOP-62 = system: HOP-62
Procedure, shortened: as §1

HCC-78 = system: HCC-78
Procedure, shortened: as §1

NCI-H661 = system: NCI-H661
Procedure, shortened: as §1

NCI-H1437 = system: NCI-H1437
Procedure, shortened: as §1

LXF-289 = system: LXF-289
Procedure, shortened: as §1

NCI-H596 = system: NCI-H596
Procedure, shortened: as §1

LCLC-97TM1 = system: LCLC-97TM1
Procedure, shortened: as §1

NCI-H2087 = system: NCI-H2087
Procedure, shortened: as §1

NCI-H1666 = system: NCI-H1666
Procedure, shortened: as §1

NCI-H1944 = system: NCI-H1944
Procedure, shortened: as §1

H3255 = system: H3255
Procedure, shortened: as §1

NCI-H2085 = system: NCI-H2085
Procedure, shortened: as §1

NCI-H2126 = system: NCI-H2126
Procedure, shortened: as §1

ChaGo-K-1 = system: ChaGo-K-1
Procedure, shortened: as §1

COR-L23 = system: COR-L23
Procedure, shortened: as §1

NCI-H3122 = system: NCI-H3122
Procedure, shortened: as §1

EPLC-272H = system: EPLC-272H
Procedure, shortened: as §1

Cc1cn(-c2cc(NC(=O)c3ccc(C)c(Nc4nccc(-c5cccnc5)n4)c3)cc(C(F)(F)F)c2)cn1 [Nilotinib] + C[C@@H](Oc1cc(-c2cnn(C3CCNCC3)c2)cnc1N)c1c(Cl)ccc(F)c1Cl [Crizotinib] (partner 1 µM)
relative viability (NCI-H1650; first compound 0.001 µM): 1.07
relative viability (NCI-H1650; first compound 0.003162 µM): 1.1
relative viability (NCI-H1650; first compound 0.01 µM): 0.998
relative viability (NCI-H1650; first compound 0.03162 µM): 0.777
relative viability (NCI-H1650; first compound 0.1 µM): 0.87
relative viability (NCI-H441; first compound 0.001 µM): 0.728
relative viability (NCI-H441; first compound 0.003162 µM): 0.825
relative viability (NCI-H441; first compound 0.01 µM): 0.601
relative viability (NCI-H441; first compound 0.1 µM): 0.652
relative viability (PC-14; first compound 0.001 µM): 0.871
relative viability (PC-14; first compound 0.003162 µM): 0.941
relative viability (PC-14; first compound 0.01 µM): 1.11
relative viability (PC-14; first compound 0.03162 µM): 0.861
relative viability (PC-14; first compound 0.1 µM): 0.945
relative viability (HARA; first compound 0.001 µM): 1.09
relative viability (HARA; first compound 0.003162 µM): 1.42
relative viability (HARA; first compound 0.01 µM): 1.61
relative viability (HARA; first compound 0.03162 µM): 0.886
relative viability (HARA; first compound 0.1 µM): 1.05
relative viability (HOP-62; first compound 0.001 µM): 0.738
relative viability (HOP-62; first compound 0.003162 µM): 1.22
relative viability (HOP-62; first compound 0.01 µM): 1.13
relative viability (HOP-62; first compound 0.03162 µM): 0.796
relative viability (HOP-62; first compound 0.1 µM): 0.738
relative viability (HCC-78; first compound 0.001 µM): 0.351
relative viability (HCC-78; first compound 0.003162 µM): 0.239
relative viability (HCC-78; first compound 0.01 µM): 0.432
relative viability (HCC-78; first compound 0.03162 µM): 0.333
relative viability (HCC-78; first compound 0.1 µM): 0.361
relative viability (NCI-H661; first compound 0.001 µM): 0.879
relative viability (NCI-H661; first compound 0.003162 µM): 1.12
relative viability (NCI-H661; first compound 0.01 µM): 1.03
relative viability (NCI-H661; first compound 0.03162 µM): 0.945
relative viability (NCI-H661; first compound 0.1 µM): 0.93
relative viability (NCI-H1437; first compound 0.001 µM): 0.789
relative viability (NCI-H1437; first compound 0.003162 µM): 1.25
relative viability (NCI-H1437; first compound 0.01 µM): 1.13
relative viability (NCI-H1437; first compound 0.03162 µM): 0.705
relative viability (NCI-H1437; first compound 0.1 µM): 0.866
relative viability (LXF-289; first compound 0.001 µM): 0.806
relative viability (LXF-289; first compound 0.003162 µM): 0.885
relative viability (LXF-289; first compound 0.01 µM): 0.923
relative viability (LXF-289; first compound 0.03162 µM): 0.731
relative viability (LXF-289; first compound 0.1 µM): 0.765
relative viability (NCI-H596; first compound 0.001 µM): 0.937
relative viability (NCI-H596; first compound 0.01 µM): 1.07
relative viability (NCI-H596; first compound 0.03162 µM): 0.958
relative viability (NCI-H596; first compound 0.1 µM): 1.1
relative viability (LCLC-97TM1; first compound 0.001 µM): 0.246
relative viability (LCLC-97TM1; first compound 0.003162 µM): 0.328
relative viability (LCLC-97TM1; first compound 0.01 µM): 0.712
relative viability (LCLC-97TM1; first compound 0.03162 µM): 0.311
relative viability (LCLC-97TM1; first compound 0.1 µM): 0.469
relative viability (NCI-H2087; first compound 0.001 µM): 0.626
relative viability (NCI-H2087; first compound 0.003162 µM): 0.806
relative viability (NCI-H2087; first compound 0.01 µM): 0.947
relative viability (NCI-H2087; first compound 0.03162 µM): 0.702
relative viability (NCI-H2087; first compound 0.1 µM): 0.667
relative viability (NCI-H1666; first compound 0.001 µM): 0.826
relative viability (NCI-H1666; first compound 0.003162 µM): 0.983
relative viability (NCI-H1666; first compound 0.01 µM): 0.964
relative viability (NCI-H1666; first compound 0.03162 µM): 0.936
relative viability (NCI-H1666; first compound 0.1 µM): 1.11
relative viability (NCI-H1944; first compound 0.001 µM): 1.18
relative viability (NCI-H1944; first compound 0.003162 µM): 1.24
relative viability (NCI-H1944; first compound 0.01 µM): 1.21
relative viability (NCI-H1944; first compound 0.03162 µM): 1.16
relative viability (NCI-H1944; first compound 0.1 µM): 0.939
relative viability (H3255; first compound 0.001 µM): 0.773
relative viability (H3255; first compound 0.003162 µM): 0.99
relative viability (H3255; first compound 0.01 µM): 1.07
relative viability (H3255; first compound 0.03162 µM): 0.814
relative viability (H3255; first compound 0.1 µM): 1.11
relative viability (NCI-H2085; first compound 0.001 µM): 0.982
relative viability (NCI-H2085; first compound 0.003162 µM): 0.895
relative viability (NCI-H2085; first compound 0.01 µM): 0.971
relative viability (NCI-H2085; first compound 0.03162 µM): 0.721
relative viability (NCI-H2085; first compound 0.1 µM): 0.884
relative viability (NCI-H2126; first compound 0.001 µM): 1.02
relative viability (NCI-H2126; first compound 0.003162 µM): 1.23
relative viability (NCI-H2126; first compound 0.01 µM): 1.39
relative viability (NCI-H2126; first compound 0.03162 µM): 0.966
relative viability (NCI-H2126; first compound 0.1 µM): 0.943
relative viability (ChaGo-K-1; first compound 0.001 µM): 1.1
relative viability (ChaGo-K-1; first compound 0.003162 µM): 1.08
relative viability (ChaGo-K-1; first compound 0.01 µM): 1.27
relative viability (ChaGo-K-1; first compound 0.03162 µM): 0.674
relative viability (ChaGo-K-1; first compound 0.1 µM): 1.08
relative viability (COR-L23; first compound 0.001 µM): 0.601
relative viability (COR-L23; first compound 0.003162 µM): 0.625
relative viability (COR-L23; first compound 0.01 µM): 0.848
relative viability (COR-L23; first compound 0.03162 µM): 0.465
relative viability (COR-L23; first compound 0.1 µM): 0.625
relative viability (NCI-H3122; first compound 0.001 µM): 0.298
relative viability (NCI-H3122; first compound 0.003162 µM): 0.314
relative viability (NCI-H3122; first compound 0.01 µM): 0.33
relative viability (NCI-H3122; first compound 0.03162 µM): 0.3
relative viability (NCI-H3122; first compound 0.1 µM): 0.328
relative viability (EPLC-272H; first compound 0.001 µM): 0.942
relative viability (EPLC-272H; first compound 0.003162 µM): 0.935
relative viability (EPLC-272H; first compound 0.01 µM): 1.01
relative viability (EPLC-272H; first compound 0.03162 µM): 0.831
relative viability (EPLC-272H; first compound 0.1 µM): 0.917
